PMC9935382, “Sorting nexin-dependent therapeutic targeting of oncogenic epidermal growth factor receptor” (Cancer Gene Therapy, 2022)
Entries after “also recorded” stand apart in the source; their conditions may differ. Blank lines part the entries; values can stand above or below the molecule they belong to.

Legend:
MDA-MB-231 cells = details: previously characterized; no reference given; cited from earlier work
T47D cells = details: previously characterized; no reference given; cited from earlier work
[1] = biological target: EGFR kinase domain protein (EGFRkin), residues 672-998 with N-terminal His-tag (human); test: MST; His-EGFRkin (50 nM) labelled through the His-tag with RED-tris-NTA 2nd Generation dye; SNX peptides or SNX-BAR protein titrated, 16 1:1 serial dilutions from 20 uM in PBS-T; room temperature; Monolith NT.115 pico
MCF10A cells = test: MTT cell viability, MCF10A; type: cell-based; details: immortalized breast epithelial line, 3 days
Experimental: (§1) 2 × 10^3 cells were plated per well in a 96 well plate and left to adhere overnight. The following day, drug treatments were started and continued for 3 days. To measure the viability of the remaining cell population, 10% 3-(4,5-dimethylthiazol-2-yl)-2,5-diphenyltetrazolium (MTT) in media was added and incubated for 2 hours and conversion of MTT to formazan at 540 nm using a biotech Synergy LX plate reader.
(§2) A–G Cells were plated in a 96-well plate at 2000 cells per well. […] Cell viability was then measured with an MTT assay, viability of treated cells were compared with the vehicle control. H MDA-MB-468 cells were plated and incubated+/− IPTG for 2 days prior to drug treatment to induce expression of an EGFR-targeted shRNA.

CHO cells = test: MTT cell viability, CHO; type: cell-based, Chinese hamster; details: CHO cells lack EGFR expression, 3 days
Experimental: as §1, §2
Supplementary Figure 1. A. BT20 triple negative breast cancer cells were treated with SNX1.1, 1.2, or 1.3 for 3 days and their viability was measured via MTT analysis. B. CHO cells were treated with PTD4 or SNX1.3 for 3 days and their viability was measured via MTT analysis.

[2] = biological target: T1, EGFR kinase domain (residues 672–998) (Homo sapiens, UniProt P00533); test: Microscale thermophoresis (MST) binding to EGFRkin; details: MST, His-EGFRkin 50 nM (RED-tris-NTA dye) titrated with ligand, 16 1:1 serial dilutions from 20 μM, PBS-T, room temperature
T1 construct: baculovirus insect cell expression system (residues 672–998 with N-terminal His-tag followed by TEV cleavage site); made in house; host or cells: Sf9 insect cells (Bac-to-Bac baculovirus, pFastBacHT)
Experimental: Briefly pFastBacHT plasmid containing the cDNA of EGFR kinase domain with N-terminal His-tag was transformed into DH10Bac E. coli to generate bacmid DNA. P1 virus was generated by transfecting 2.0 mL of sf9 cells at 1.0 million cells/ml density with the purified bacmid DNA (200–3000 ng/μL). The P1 virus was harvested after 5–7 days following transfection. The P1 virus was diluted 100-fold into an sf9 cell culture at a density of 2.0 million cells/ml and cultured for 3 days. Supernatant containing the P2 virus was collected by centrifugation and diluted 40-fold into 1.0 L of sf9 cells at a density of 2.0 million cells/ml. After 2.5–3 days, cell pellets were harvested by centrifugation at 3500 x g at 4 °C for 20 min, and flash frozen in liquid nitrogen prior to storage at −80 °C.
To purify the EGFR kinase domain, Sf9 cell pellets (~10 g) was thawed on ice and homogenized with 2 passages on an EmulsiFlex-C5 (Avestin) in 50 mL of lysis buffer (50 mM Tris pH 7.5, 600 mM NaCl, 1 mM EDTA, 1 mM TCEP, protease inhibitors, DNAase, and 10% Glycerol). The lysate was centrifugated and supernatant was collected and loaded onto a 1.0 mL HisTrap FF column (GE) at a flow rate of 1.0 ml/min. Following loading, the column was washed with 20 column volumes of wash buffer (50 mM Tris pH 7.5, 600 mM NaCl, 20 mM Imidazole, 1 mM TCEP, and 10% Glycerol) and eluted with a linear gradient of elution buffers containing 20 and 300 mM imidazole. Fractions containing the EGFR kinase domain proteins were combined and concentrated to less than 1.0 mL. The concentrated proteins were loaded onto a Superdex 200 10/300 GL column (GE) equilibrated in buffer (20 mM Tris pH 7.5, 100 mM NaCl) for further purification. The purified proteins were concentrated, flash frozen in liquid nitrogen, and stored at −80 °C.
MST experiments were carried out using a Monolith NT.115 pico instrument (NanoTemper Technologies, Munich Germany). […] Kd values were derived from the concentration-dependent changes in normalized fluorescence (Fnorm). Data were analyzed using NanoTemper MO. […]

Molecule: C#Cc1cccc(Nc2ncnc3cc(OCCOC)c(OCCOC)cc23)c1 [erlotinib]
resistance to erlotinib (MDA-MB-231 cells): resistant | resistance to erlotinib (T47D cells): resistant

Molecule: CNC(=O)CN1CCC(Oc2cc3c(Nc4cccc(Cl)c4F)ncnc3cc2OC)CC1 [Sapitinib]
impact on cell viability / growth (MCF10A cells): more effective at inhibiting cell growth in immortalized cells than in cancer cells; also recorded: significantly reduces viability of normal cells | impact on cell viability / growth (CHO cells): more effective at inhibiting cell growth in immortalized cells than in cancer cells

Results, then the molecule that gave them:

Kd [1]: 3000 nM
Molecule: human SNX-BAR protein (SNX1 BAR domain, residues 301-522) (from UniProt Q13596 301-522) (domain or fragment)

Kd [2]: 3000 nM | Kd ([2]; listed as SNX1 Bar): 2900 ± 1700 nM
B1: BAR domain: human SNX1 BAR domain, residues 301–522, expressed in E. coli (protein)
chain: KMNESDIWFEEKLQEVECEEQRLRKLHAVVETLVNHRKELALNTAQFAKSLAMLGSSEDNTALSRALSQLAEVEEKIEQLHQEQANNDFFLLAELLSDYIRLLAIVRAAFDQRMKTWQRWQDAQATLQKKREAEARLLWANKPDKLQQAKDEILEWESRVTQYERDFERISTVVRKEVIRFEKEKSKDFKNHVIKYLETLLYSQQQLAKYWEAFLPEAKAIS
modifications: left off: MBP, N-terminal, cleaved
notes: human SNX1 BAR domain, residues 301–522, expressed in E. coli
